According to the NIST ThermoML archive (doi:10.1021/acs.jced.5b00367):
Numbers after ± are expanded uncertainties.

Experiment: wn = mass fraction of the nth substance listed
Details: 101 kPa, Liquid, Alternating current cell with electrodes, w1 = 0.01

CCCCCCCCCC[N+](CC)(CC)CCCCCCCCCC.[Br-] [didecyldiethylammonium bromide] + O
Details	electrical conductivity [S/m]
277.55 K	0.0116 ± 0.0046
277.75 K	0.0115 ± 0.0046
277.85 K	0.0116 ± 0.0046
277.95 K	0.0116 ± 0.0046
278.15 K	0.0117 ± 0.0047
278.25 K	0.0117 ± 0.0047
278.35 K	0.0117 ± 0.0047
278.45 K	0.0116 ± 0.0046
278.55 K	0.0116 ± 0.0046
278.65 K	0.0116 ± 0.0046
278.75 K	0.0117 ± 0.0047
278.85 K	0.0117 ± 0.0047
279.05 K	0.0118 ± 0.0047
279.15 K	0.0118 ± 0.0047
279.25 K	0.0118 ± 0.0047
279.35 K	0.0119 ± 0.0047
279.55 K	0.012 ± 0.0048
279.65 K	0.012 ± 0.0048
279.85 K	0.012 ± 0.0048
279.95 K	0.012 ± 0.0048
280.15 K	0.0121 ± 0.0048
280.25 K	0.0121 ± 0.0049
280.35 K	0.0122 ± 0.0049
280.45 K	0.0122 ± 0.0049
280.55 K	0.0123 ± 0.0049
280.65 K	0.0123 ± 0.0049
280.75 K	0.0123 ± 0.0049
280.95 K	0.0123 ± 0.0049
281.05 K	0.0124 ± 0.005
281.15 K	0.0124 ± 0.005
281.25 K	0.0124 ± 0.005
281.35 K	0.0125 ± 0.005
281.45 K	0.0126 ± 0.005
281.55 K	0.0126 ± 0.005
281.65 K	0.0127 ± 0.0051
281.75 K	0.0127 ± 0.0051
281.85 K	0.0127 ± 0.0051
281.95 K	0.0127 ± 0.0051
282.05 K	0.0128 ± 0.0051
282.15 K	0.0129 ± 0.0051
282.35 K	0.0128 ± 0.0051
282.45 K	0.0129 ± 0.0052
282.55 K	0.013 ± 0.0052
282.65 K	0.013 ± 0.0052
282.75 K	0.0131 ± 0.0052
282.85 K	0.0131 ± 0.0052
282.95 K	0.0131 ± 0.0053
283.05 K	0.0132 ± 0.0053
283.15 K	0.0132 ± 0.0053
283.25 K	0.0133 ± 0.0053
283.35 K	0.0133 ± 0.0053
283.45 K	0.0134 ± 0.0053
283.55 K	0.0134 ± 0.0053
283.75 K	0.0135 ± 0.0054
283.85 K	0.0136 ± 0.0054
283.95 K	0.0136 ± 0.0054
284.05 K	0.0136 ± 0.0054
284.15 K	0.0137 ± 0.0055
284.25 K	0.0137 ± 0.0055
284.35 K	0.0138 ± 0.0055
284.45 K	0.0139 ± 0.0056
284.55 K	0.0138 ± 0.0055
284.65 K	0.0139 ± 0.0056
284.75 K	0.014 ± 0.0056
284.85 K	0.0141 ± 0.0056
284.95 K	0.0141 ± 0.0056
285.05 K	0.0143 ± 0.0057
285.15 K	0.0143 ± 0.0057
285.25 K	0.0142 ± 0.0057
285.35 K	0.0144 ± 0.0058
285.45 K	0.0145 ± 0.0058
285.55 K	0.0146 ± 0.0058
285.65 K	0.0146 ± 0.0058
285.75 K	0.0148 ± 0.0059
285.85 K	0.0147 ± 0.0059
285.95 K	0.015 ± 0.006
286.05 K	0.015 ± 0.006
286.15 K	0.0152 ± 0.0061
286.25 K	0.0152 ± 0.0061
286.35 K	0.0154 ± 0.0062
286.45 K	0.0155 ± 0.0062
286.55 K	0.0157 ± 0.0063
286.65 K	0.0158 ± 0.0063
286.75 K	0.016 ± 0.0064
286.85 K	0.0161 ± 0.0065
286.95 K	0.0164 ± 0.0066
287.05 K	0.0164 ± 0.0066
287.15 K	0.0167 ± 0.0067
287.25 K	0.0169 ± 0.0067
287.35 K	0.0172 ± 0.0069
287.45 K	0.0175 ± 0.007
287.55 K	0.0177 ± 0.0071
287.65 K	0.0179 ± 0.0072
287.75 K	0.0182 ± 0.0073
287.85 K	0.0186 ± 0.0075
287.95 K	0.0189 ± 0.0076
288.05 K	0.0192 ± 0.0077
288.15 K	0.0196 ± 0.0079
288.25 K	0.0201 ± 0.0081
288.35 K	0.0206 ± 0.0083
288.45 K	0.021 ± 0.0084
288.55 K	0.0213 ± 0.0086
288.65 K	0.0218 ± 0.0087
288.75 K	0.022 ± 0.0088
288.85 K	0.0225 ± 0.009
288.95 K	0.0227 ± 0.0091
289.05 K	0.0228 ± 0.0091
289.15 K	0.0233 ± 0.0093
289.25 K	0.0238 ± 0.0095
289.35 K	0.0241 ± 0.0097
289.45 K	0.0243 ± 0.0098
289.55 K	0.0249 ± 0.01
289.75 K	0.0256 ± 0.01
289.85 K	0.0262 ± 0.011
289.95 K	0.0267 ± 0.011
290.05 K	0.0274 ± 0.011
290.15 K	0.028 ± 0.011
290.25 K	0.0287 ± 0.012
290.35 K	0.0297 ± 0.012
290.45 K	0.0305 ± 0.012
290.55 K	0.0311 ± 0.013
290.65 K	0.0319 ± 0.013
290.75 K	0.0329 ± 0.013
290.85 K	0.0339 ± 0.014
290.95 K	0.0352 ± 0.014
291.15 K	0.0365 ± 0.015
291.25 K	0.0379 ± 0.015
291.35 K	0.0395 ± 0.016
291.45 K	0.0401 ± 0.016
291.55 K	0.0419 ± 0.017
291.65 K	0.0447 ± 0.018
291.75 K	0.0451 ± 0.018
291.85 K	0.047 ± 0.019
291.95 K	0.0496 ± 0.021
292.05 K	0.0526 ± 0.022
292.15 K	0.0559 ± 0.023
292.25 K	0.0648 ± 0.027
292.35 K	0.0649 ± 0.026
292.45 K	0.0649 ± 0.026
292.55 K	0.0676 ± 0.027
292.65 K	0.0687 ± 0.028
292.75 K	0.0704 ± 0.028
292.85 K	0.0711 ± 0.029
292.95 K	0.0714 ± 0.029
293.05 K	0.0718 ± 0.029
293.15 K	0.0718 ± 0.029
293.35 K	0.0721 ± 0.029
293.45 K	0.0722 ± 0.029
293.55 K	0.0723 ± 0.029
293.65 K	0.0724 ± 0.029
293.75 K	0.0725 ± 0.029
293.85 K	0.0726 ± 0.029
293.95 K	0.0726 ± 0.029
294.05 K	0.0727 ± 0.029
294.15 K	0.0728 ± 0.029
294.35 K	0.0729 ± 0.029
294.45 K	0.073 ± 0.029
294.55 K	0.0731 ± 0.029
294.65 K	0.0732 ± 0.029
294.75 K	0.0732 ± 0.029
294.85 K	0.0733 ± 0.029
294.95 K	0.0734 ± 0.029
295.05 K	0.0735 ± 0.029
295.15 K	0.0737 ± 0.029
295.25 K	0.0736 ± 0.029
295.35 K	0.0738 ± 0.029
295.45 K	0.0739 ± 0.03
295.55 K	0.074 ± 0.03
295.65 K	0.074 ± 0.03
295.75 K	0.0741 ± 0.03
295.85 K	0.0741 ± 0.03
295.95 K	0.0742 ± 0.03
296.05 K	0.0743 ± 0.03
296.15 K	0.0744 ± 0.03
296.25 K	0.0746 ± 0.03
296.35 K	0.0745 ± 0.03
296.45 K	0.0746 ± 0.03
296.55 K	0.0748 ± 0.03
296.65 K	0.0748 ± 0.03
296.75 K	0.0749 ± 0.03
296.85 K	0.075 ± 0.03
296.95 K	0.075 ± 0.03
297.05 K	0.0752 ± 0.03
297.15 K	0.0752 ± 0.03
297.25 K	0.0752 ± 0.03
297.35 K	0.0754 ± 0.03
297.45 K	0.0755 ± 0.03
297.55 K	0.0755 ± 0.03
297.65 K	0.0757 ± 0.03
297.75 K	0.0757 ± 0.03
297.85 K	0.0758 ± 0.03
297.95 K	0.0759 ± 0.03
298.05 K	0.076 ± 0.03
301.15 K	0.0789 ± 0.032
301.25 K	0.079 ± 0.032
301.35 K	0.0792 ± 0.032
301.55 K	0.0794 ± 0.032
301.65 K	0.0795 ± 0.032
301.75 K	0.0795 ± 0.032
301.95 K	0.0797 ± 0.032
302.05 K	0.0799 ± 0.032
302.15 K	0.08 ± 0.032
302.25 K	0.0801 ± 0.032
302.35 K	0.0802 ± 0.032
302.45 K	0.0802 ± 0.032
302.55 K	0.0803 ± 0.032
302.65 K	0.0803 ± 0.032
302.85 K	0.0806 ± 0.032
302.95 K	0.0807 ± 0.032
303.15 K	0.0809 ± 0.032
303.25 K	0.0811 ± 0.032
303.35 K	0.0811 ± 0.032
303.45 K	0.0812 ± 0.033
303.55 K	0.0814 ± 0.033
303.75 K	0.0816 ± 0.033
303.85 K	0.0817 ± 0.033
304.05 K	0.0818 ± 0.033
304.15 K	0.0819 ± 0.033
304.35 K	0.0821 ± 0.033
304.55 K	0.0823 ± 0.033
304.75 K	0.0825 ± 0.033
304.85 K	0.0826 ± 0.033
304.95 K	0.0827 ± 0.033
305.05 K	0.0829 ± 0.033
305.35 K	0.0831 ± 0.033
305.55 K	0.0831 ± 0.033
305.75 K	0.0836 ± 0.033
305.85 K	0.0838 ± 0.034
306.05 K	0.0839 ± 0.034
306.25 K	0.084 ± 0.034
306.35 K	0.0841 ± 0.034
306.45 K	0.0842 ± 0.034
306.65 K	0.0843 ± 0.034
306.75 K	0.0845 ± 0.034
306.95 K	0.0848 ± 0.034
307.05 K	0.0849 ± 0.034
307.25 K	0.0851 ± 0.034
307.55 K	0.0854 ± 0.034
307.65 K	0.0855 ± 0.034
307.85 K	0.0857 ± 0.034
308.15 K	0.086 ± 0.034
308.25 K	0.0861 ± 0.034
308.35 K	0.0862 ± 0.035
308.55 K	0.0862 ± 0.035
308.75 K	0.0864 ± 0.035
308.85 K	0.0866 ± 0.035
309.15 K	0.0871 ± 0.035
309.35 K	0.0872 ± 0.035
309.55 K	0.0874 ± 0.035
309.75 K	0.0876 ± 0.035
309.85 K	0.0877 ± 0.035
309.95 K	0.0878 ± 0.035
310.25 K	0.088 ± 0.035
310.45 K	0.0882 ± 0.035
310.55 K	0.0883 ± 0.035
310.65 K	0.0884 ± 0.035
310.95 K	0.0888 ± 0.035
311.05 K	0.089 ± 0.036
311.25 K	0.0893 ± 0.036
311.45 K	0.0894 ± 0.036
311.65 K	0.0894 ± 0.036
311.75 K	0.0896 ± 0.036
311.85 K	0.0897 ± 0.036
312.15 K	0.09 ± 0.036
312.35 K	0.0901 ± 0.036
312.45 K	0.0902 ± 0.036
312.55 K	0.0904 ± 0.036
312.75 K	0.0906 ± 0.036
312.95 K	0.0908 ± 0.036
313.15 K	0.091 ± 0.036
